Results published in EP3434255A1, “IONTOPHORESIS METHOD, COMPOSITION AND KIT FOR DELIVERING N-ACETYL-3-TRIFLUOROMETHYL-PHENYL-(VALINE-GLYCINE) THROUGH THE SKIN” (priority 2017, dated 2019).

How the values were obtained:
[1] = test system: Dermatomed porcine ear skin; assay type: in vitro ADME; settings: 1 % w/v in HEPES buffer (pH 7.15) containing 25 mM sodium chloride
Protocol: Untreated porcine ears were procured from a local slaughter house. Dorsal side of the porcine ears was used for the study.. For study #4, dermatomed porcine skin was prepared by dermatoming full thickness skin using Dermatome 75 mm (Nouvag AG TCM 3000, Goldach, Switzerland).
Dermatome is a surgical instrument used to produce thin slices of skin. Dermatoming is refering to the procedure to produce thin layers of the skin by using such device.
In vitro permeation study was performed using Franz diffusion cells (PermeGear V6 station vertical cell). These models contain 6 diffusion cells in each console with 5 ml receptor volume and 9 mm orifice. The diffusion area was 0.64 cm^2.
After washing the cells, receptor solution was left overnight and replaced with fresh sodium chloride solution (0.9 % w/v), 30 minutes prior to mounting the skin. The receptor chamber temperature was maintained at 37°C by the built-in water circulation jacket so as to attain the skin temperature of 32°C.
Skin pieces were then mounted between the donor and receptor compartment (containing 0.9 % (w/v) sodium chloride solution) of Franz diffusion cells with the stratum corneum facing towards the donor side.
The formulation (160 mg formulation containing 1.6 mg active/0.64 sq.cm) was applied in the donor chamber using a positive displacement pipette (Rainin PosD). Simplex formulation was applied in the donor chamber. The donor compartment was left open to mimic in vivo conditions. Six replicates (with the exception of preliminary study 4) were performed for each formulation for each test group (iontophoresis and corresponding passive control - "no current" group) as specified in Table 1 as follows. In the Table 1, the "active agent" is N-acetyl-3-trifluoromethyl-phenyl-(valine-glycine).
Current (0.2 mA/sq.) was applied using silver/silver chloride electrode system and a constant current source (Keithley®; Keithley Instruments, Cleveland, OH, USA). […] Current application was monitored with a chronometer. […]
Receptor samples were taken after stopping the current for the defined duration, which was 20 min in all the studies except study #4, in which sampling was performed at 5, 10, 20, 60, 120, and 240 min. […] The receptor samples were filtered and quantified with methanol calibration using LCMS.
All samples were analyzed by a validated LCMS method which was performed on an Agilent 6410 Triple Quad System to determine how much of the cosmetic agent passed into and through the skin.
Results of the studies were plotted as average amount of active permeated in receptor, quantity of the active in tape strips, and underlying skin for each test group (passive or iontophoresis treatment group). […]

[2] = pKa of the active agent; assay type: physicochemical

- average cumulative amount of active delivered after 20 min ([1]; anodal iontophoresis 0.2 mA/sq.cm compared with passive and cathodal iontophoresis, p<0.05): significantly higher
- permeation of the active agent through dermatomed porcine skin over 4 h study duration ([1]; anodal iontophoresis 0.2 mA/sq.cm for 2 h compared with passive and cathodal iontophoresis, p<0.05): significantly enhance
- cumulative active permeation after 20 min ([1]; cathodal iontophoresis 0.2 mA/sq.cm compared with passive, p>0.05): no significant difference
- cumulative active permeation after 4 h ([1]; cathodal iontophoresis 0.2 mA/sq.cm for 2 h compared with passive, p>0.05): no significant difference
- pKa [2]: 3.3
Compound: CC(=O)N(c1cccc(C(F)(F)F)c1)C(C(=O)NCC(=O)O)C(C)C (centres unmarked) [active agent, N-acetyl-3-trifluoromethyl-phenyl-(valine-glycine)]
